{
  "source": "ChEMBL document CHEMBL5523733",
  "about": "“Small Molecule Targeting PPM1A Activates Autophagy for Mycobacterium tuberculosis Host-Directed Therapy” (J Med Chem, 2024)",
  "test_system": "Mycobacterium tuberculosis",
  "test": "Anti-mycobacterial activity against Mycobacterium tuberculosis mc2 6206 expressing autoluminescent luciferase infected in human THP-1 cells assessed as reduction in bacterial burden pretreated for 24 hrs followed by bacterial infection measured for 5 days post-infection with re-current replacement of media with compound for every 2 days by luminescence based assay",
  "format": "functional, organism-based",
  "conditions": "dose 0.5-5 µM, time 6.0 day",
  "data": [
    {"smiles": "CCOc1ccc2c(c1)c[n+](CCO)c1ccc(F)cc21.[Br-]", "values": [
      {"measurement": "Activity", "value": "Dose-Dependent Effect"}
    ]}
  ]
}
